Test results: PMC10695101 (Molecular and cellular endocrinology, 2023)
pEC50: −log10 of the molar value.

Test system: androgen receptor α (ARα)
Experiment: Gal4DBD-LBD/UAS luciferase transactivation assay in U-2 OS cells
Format: cell-based, Apteronotus albifrons

Compound | pEC50
C[C@]12CC(=O)[C@H]3[C@@H](CCC4=CC(=O)CC[C@@]43C)[C@@H]1CC[C@@H]2O [11-KT] | 8.00
